# Measured values from article PMC8381505, “Phase 1 clinical trial of the PI3Kδ inhibitor YY-20394 in patients with B-cell hematological malignancies” (Journal of Hematology & Oncology, 2021).
# Read-outs that look alike come from different tables or passages of the source.
# What was measured:
# PI3Kδ = PI3Kδ (Homo sapiens, UniProt O00329); experiment: PI3Kδ kinase inhibition; type: biochemical
# [1] = Description: During dose escalation, patients received YY-20394 tablets q.d. at dosages of 20, 40, 80, 140 or 200 mg. The maximum tolerated dose (MTD), dose escalation phase and dose-limiting toxicity (DLT) as well as hematological toxicity classifications are described in Additional file 4. The primary endpoints were safety, tolerability and the MTD of YY-20394. Secondary endpoints were PK parameters and efficacy. Response criteria followed the revised International Research Working Group (IRWG) for non-Hodgkin lymphomas (NHL), and the International Working Group on Chronic Lymphocytic Leukemia (IWCLL) criteria for CLL [8]. Efficacy determinations were the objective response rate (ORR), disease control rate (DCR), complete remission (CR), partial remission (PR), stable disease (SD), progressive disease (PD) and progression-free survival (PFS).
# The safety evaluation of YY-20394 included adverse events (AEs) and serious AEs (SAEs) by standard categorizations.
# The maximum tolerated dose (MTD) was established during the dose escalation phase, based on dose-limiting toxicity (DLT) developments, which were defined as: death; grade IV hematological toxicity with a duration of 1 week; or non-hematological toxicities ≥ grade III. […] At the end of the tolerance test, the dose extension test was conducted, in which YY-20394 was administered for a period of 28 days per cycle until the disease progressed or toxicity developed beyond tolerance. Patients visited the clinic once a week during treatment cycle 1 and every 2 weeks during cycle 2 and once a month thereafter.
# [2] = Pharmacokinetics in patients after a single dose; type: in vivo, human; conditions: for AUC(0-inf) / AUC(0-t) / Cmax / Tmax / Vd/F / half-life / MRT last / MRT inf: human, serum, oral; for AUC(0-inf) / AUC(0-t) / Cmax / Tmax / Vd/F / half-life / MRT last / MRT inf / CL/F: single dose; for MRT last: read-out: MRT0→t; for MRT inf: read-out: MRT0→∞
# Excerpt: Additional File 5: Table S3. Mean pharmacokinetic parameters of patients after a single dose in each dosage group
# [3] = drug-related AE, n (%) of 25 evaluable patients
# PI3Kδ, sequence (O00329 whole entry): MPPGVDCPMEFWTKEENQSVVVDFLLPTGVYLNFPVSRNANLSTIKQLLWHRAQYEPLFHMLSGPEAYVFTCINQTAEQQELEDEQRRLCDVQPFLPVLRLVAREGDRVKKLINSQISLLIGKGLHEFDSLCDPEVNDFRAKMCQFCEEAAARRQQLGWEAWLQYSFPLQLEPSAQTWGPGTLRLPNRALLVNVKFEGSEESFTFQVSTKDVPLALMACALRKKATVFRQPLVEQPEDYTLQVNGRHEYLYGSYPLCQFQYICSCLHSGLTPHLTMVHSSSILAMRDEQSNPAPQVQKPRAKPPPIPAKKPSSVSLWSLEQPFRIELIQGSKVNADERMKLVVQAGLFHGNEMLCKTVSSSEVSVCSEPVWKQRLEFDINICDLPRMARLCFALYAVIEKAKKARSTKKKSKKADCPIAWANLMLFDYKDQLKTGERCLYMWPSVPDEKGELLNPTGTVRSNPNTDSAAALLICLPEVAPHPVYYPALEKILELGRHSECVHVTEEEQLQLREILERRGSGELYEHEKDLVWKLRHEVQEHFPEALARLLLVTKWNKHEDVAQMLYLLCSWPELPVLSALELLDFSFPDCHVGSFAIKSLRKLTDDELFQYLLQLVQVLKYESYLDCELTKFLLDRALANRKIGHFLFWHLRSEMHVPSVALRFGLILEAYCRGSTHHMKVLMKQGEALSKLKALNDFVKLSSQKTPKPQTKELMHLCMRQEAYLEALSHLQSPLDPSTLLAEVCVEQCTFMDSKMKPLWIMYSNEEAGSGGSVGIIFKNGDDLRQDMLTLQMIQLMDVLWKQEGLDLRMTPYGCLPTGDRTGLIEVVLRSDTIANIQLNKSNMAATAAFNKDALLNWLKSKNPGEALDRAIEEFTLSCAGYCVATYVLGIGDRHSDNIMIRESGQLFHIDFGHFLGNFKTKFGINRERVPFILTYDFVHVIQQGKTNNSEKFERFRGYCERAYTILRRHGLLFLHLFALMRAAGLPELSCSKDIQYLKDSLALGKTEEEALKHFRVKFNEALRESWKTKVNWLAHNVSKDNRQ
# PI3Kδ, sequence (P27986 whole entry partner): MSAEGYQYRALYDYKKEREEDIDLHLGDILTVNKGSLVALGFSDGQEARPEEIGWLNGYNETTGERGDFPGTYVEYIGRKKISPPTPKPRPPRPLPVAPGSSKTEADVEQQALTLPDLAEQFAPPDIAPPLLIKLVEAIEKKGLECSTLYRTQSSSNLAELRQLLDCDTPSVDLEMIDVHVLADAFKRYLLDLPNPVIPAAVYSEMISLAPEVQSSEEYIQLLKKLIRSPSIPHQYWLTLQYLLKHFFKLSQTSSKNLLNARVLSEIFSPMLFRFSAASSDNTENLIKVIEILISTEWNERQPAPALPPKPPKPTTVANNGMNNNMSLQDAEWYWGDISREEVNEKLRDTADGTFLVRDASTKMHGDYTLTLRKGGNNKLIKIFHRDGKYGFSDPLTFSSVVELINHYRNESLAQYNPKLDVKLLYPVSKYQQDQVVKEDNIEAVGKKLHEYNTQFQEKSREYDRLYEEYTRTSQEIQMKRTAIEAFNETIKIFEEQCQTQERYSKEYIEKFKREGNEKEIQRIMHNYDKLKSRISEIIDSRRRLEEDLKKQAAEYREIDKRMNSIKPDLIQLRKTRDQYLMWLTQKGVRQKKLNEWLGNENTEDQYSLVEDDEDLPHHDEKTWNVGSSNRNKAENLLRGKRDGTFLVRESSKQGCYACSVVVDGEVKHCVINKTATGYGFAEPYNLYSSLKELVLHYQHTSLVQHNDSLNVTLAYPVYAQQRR
smiles,measurement,setting,value
"COc1ncc(-c2nc(N3CCOCC3)nc3c(CN4CCC(C(C)(C)O)CC4)cc(F)cc23)cc1NS(C)(=O)=O [YY-20394, N-[5-[6-fluoro-8-[[4-(1-hydroxy-1-methylethyl)-1-piperidinyl]methyl]-2-(4-morpholinyl)-4-quinazolinyl]-2-methoxy-3-pyridinyl]-methanesulfonamide]",IC50,PI3Kδ,4.6 nM
same,maximum tolerated dose (MTD),[1]; 20–200 mg daily,not reached
same,"Upper respiratory tract infection, number of patients with grade I/II at > 5% incidence",[1]; [3],4 (16.0)
same,"Upper respiratory tract infection, number of patients with ≥ grade III",[1]; [3],1 (4.0)
same,"Anemia, number of patients with grade I/II at > 5% incidence","[1]; human, in vivo",3 (12.0)
same,"Anemia, number of patients with ≥ grade III","[1]; human, in vivo",0
same,"Cough, number of patients with grade I/II at > 5% incidence","[1]; human, in vivo",2 (8.0)
same,"Cough, number of patients with ≥ grade III","[1]; human, in vivo",0
same,"Diarrhea, number of patients with grade I/II at > 5% incidence","[1]; human, in vivo",2 (8.0)
same,"Diarrhea, number of patients with ≥ grade III","[1]; human, in vivo",0
same,"Elevated alanine aminotransferase, number of patients with grade I/II at > 5% incidence","[1]; human, in vivo",3 (12.0)
same,"Elevated alanine aminotransferase, number of patients with ≥ grade III","[1]; human, in vivo",0
same,"Elevated aspartate aminotransferase, number of patients with grade I/II at > 5% incidence","[1]; human, in vivo",2 (8.0)
same,"Elevated aspartate aminotransferase, number of patients with ≥ grade III","[1]; human, in vivo",0
same,"Elevated bilirubin, number of patients with grade I/II at > 5% incidence","[1]; human, in vivo",2 (8.0)
same,"Elevated bilirubin, number of patients with ≥ grade III","[1]; human, in vivo",0
same,"Elevated serum alkaline phosphatase, number of patients with grade I/II at > 5% incidence","[1]; human, in vivo",3 (12.0)
same,"Elevated serum alkaline phosphatase, number of patients with ≥ grade III","[1]; human, in vivo",0
same,"Elevated serum lactate dehydrogenase, number of patients with grade I/II at > 5% incidence","[1]; human, in vivo",11 (44.0)
same,"Elevated serum lactate dehydrogenase, number of patients with ≥ grade III","[1]; human, in vivo",1 (4.0)
same,"Elevated serum α-hydroxybutyrate dehydrogenase, number of patients with grade I/II at > 5% incidence","[1]; human, in vivo",6 (24.0)
same,"Elevated serum α-hydroxybutyrate dehydrogenase, number of patients with ≥ grade III","[1]; human, in vivo",1 (4.0)
same,"Elevated γ-glutamyltransferase, number of patients with grade I/II at > 5% incidence","[1]; human, in vivo",2 (8.0)
same,"Elevated γ-glutamyltransferase, number of patients with ≥ grade III","[1]; human, in vivo",0
same,"Fatigue, number of patients with grade I/II at > 5% incidence","[1]; human, in vivo",2 (8.0)
same,"Fatigue, number of patients with ≥ grade III","[1]; human, in vivo",0
same,"Fever, number of patients with grade I/II at > 5% incidence","[1]; human, in vivo",2 (8.0)
same,"Fever, number of patients with ≥ grade III","[1]; human, in vivo",0
same,"Hyperbilirubinemia, number of patients with grade I/II at > 5% incidence","[1]; human, in vivo",3 (12.0)
same,"Hyperbilirubinemia, number of patients with ≥ grade III","[1]; human, in vivo",0
same,"Hyperuricemia, number of patients with grade I/II at > 5% incidence","[1]; human, in vivo",5 (20.0)
same,"Hyperuricemia, number of patients with ≥ grade III","[1]; human, in vivo",3 (12.0)
same,"Leukocytosis, number of patients with grade I/II at > 5% incidence","[1]; human, in vivo",2 (8.0)
same,"Leukocytosis, number of patients with ≥ grade III","[1]; human, in vivo",0
same,"Leukopenia, number of patients with grade I/II at > 5% incidence","[1]; human, in vivo",11 (44.0)
same,"Leukopenia, number of patients with ≥ grade III","[1]; human, in vivo",2 (8.0)
same,"Lymphocythemia, number of patients with grade I/II at > 5% incidence","[1]; human, in vivo",3 (12.0)
same,"Lymphocythemia, number of patients with ≥ grade III","[1]; human, in vivo",2 (8.0)
same,"Maculopapule, number of patients with grade I/II at > 5% incidence","[1]; human, in vivo",2 (8.0)
same,"Maculopapule, number of patients with ≥ grade III","[1]; human, in vivo",0
same,"Neutropenia, number of patients with grade I/II at > 5% incidence","[1]; human, in vivo",17 (68.0)
same,"Neutropenia, number of patients with ≥ grade III","[1]; human, in vivo",11 (44.0)
same,"Oropharyngeal pain, number of patients with grade I/II at > 5% incidence","[1]; human, in vivo",2 (8.0)
same,"Oropharyngeal pain, number of patients with ≥ grade III","[1]; human, in vivo",0
same,"Pneumonia, number of patients with grade I/II at > 5% incidence","[1]; human, in vivo",4 (16.0)
same,"Pneumonia, number of patients with ≥ grade III","[1]; human, in vivo",4 (16.0)
same,"Pneumonitis, number of patients with grade I/II at > 5% incidence","[1]; human, in vivo",3 (12.0)
same,"Pneumonitis, number of patients with ≥ grade III","[1]; human, in vivo",2 (8.0)
same,"Proteinuria, number of patients with grade I/II at > 5% incidence","[1]; human, in vivo",4 (16.0)
same,"Proteinuria, number of patients with ≥ grade III","[1]; human, in vivo",0
same,"Thrombocytopenia, number of patients with grade I/II at > 5% incidence","[1]; human, in vivo",5 (20.0)
same,"Thrombocytopenia, number of patients with ≥ grade III","[1]; human, in vivo",1 (4.0)
same,"Weight gain, number of patients with grade I/II at > 5% incidence","[1]; human, in vivo",2 (8.0)
same,"Weight gain, number of patients with ≥ grade III","[1]; human, in vivo",1 (4.0)
same,"Weight loss, number of patients with grade I/II at > 5% incidence","[1]; human, in vivo",3 (12.0)
same,"Weight loss, number of patients with ≥ grade III","[1]; human, in vivo",0
same,dose-limiting toxicity (DLT),"[1]; human, in vivo",no patients experienced DLT
same,drug-related AE elevated lactate dehydrogenase,"[1]; human, in vivo",44.0%
same,drug-related AE elevated α-hydroxybutyrate dehydrogenase,"[1]; human, in vivo",24.0%
same,drug-related AE hyperuricemia,"[1]; human, in vivo",20.0%
same,drug-related AE leukopenia,"[1]; human, in vivo",44.0%
same,drug-related AE neutropenia,"[1]; human, in vivo",68.0%
same,drug-related AE thrombocytopenia,"[1]; human, in vivo",20.0%
same,drug-related AE ≥ grade III hyperuricemia,"[1]; human, in vivo",12.0%
same,drug-related AE ≥ grade III leukopenia,"[1]; human, in vivo",8.0%
same,drug-related AE ≥ grade III lymphocythemia,"[1]; human, in vivo",8.0%
same,drug-related AE ≥ grade III neutropenia,"[1]; human, in vivo",44.0%
same,drug-related AE ≥ grade III pneumonia,"[1]; human, in vivo",16.0%
same,drug-related AE ≥ grade III pneumonitis,"[1]; human, in vivo",8.0%
same,grade IV hyperuricemia,"[1]; human, in vivo",3 cases
same,grade IV neutropenia,"[1]; human, in vivo",4
same,grade V AEs,"[1]; human, in vivo",no grade V AEs occurred
same,"incidence of diarrhea, colitis, and hepatotoxicities","[1]; human, in vivo",very low
same,number of ≥ grade III AEs,"[1]; human, in vivo",32
same,patients who experienced SAEs,"[1]; human, in vivo",52.0%
same,patients who experienced drug-related AEs (so in the source),"[1]; human, in vivo",36.0%
same,patients with ≥ 1 AE,"[1]; human, in vivo",25 patients
same,AUC(0-inf),"[2]; 20 mg, mean",1390 ng·h/mL
same,AUC(0-t),"[2]; 20 mg, mean",1140 ng·h/mL
same,Cmax,"[2]; 20 mg, mean",39.3 ng/mL
same,Tmax,"[2]; 20 mg, mean",4 h
same,Vd/F,"[2]; 20 mg, mean",576 L
same,half-life,"[2]; 20 mg, mean",27.8 h
same,MRT last,"[2]; 20 mg, mean",25 h
same,MRT inf,"[2]; 20 mg, mean",40.7 h
same,AUC(0-inf),"[2]; 40 mg, mean ± SD",2410 ng·h/mL
same,AUC(0-t),"[2]; 40 mg, mean ± SD",2270 ng·h/mL
same,Cmax,"[2]; 40 mg, mean ± SD",148 ± 24.5 ng/mL
same,Tmax,"[2]; 40 mg, mean ± SD",1.8 ± 0.3 h
same,Vd/F,"[2]; 40 mg, mean ± SD",445 ± 100 L
same,half-life,"[2]; 40 mg, mean ± SD",17.8 ± 1.4 h
same,MRT last,"[2]; 40 mg, mean ± SD",18 ± 0.9 h
same,MRT inf,"[2]; 40 mg, mean ± SD",22.4 ± 1.3 h
same,AUC(0-inf),"[2]; 80 mg, mean ± SD",6880 ng·h/mL
same,AUC(0-t),"[2]; 80 mg, mean ± SD",6510 ng·h/mL
same,Cmax,"[2]; 80 mg, mean ± SD",347 ± 90.2 ng/mL
same,Tmax,"[2]; 80 mg, mean ± SD",2.7 ± 1.5 h
same,Vd/F,"[2]; 80 mg, mean ± SD",302 ± 70.4 L
same,half-life,"[2]; 80 mg, mean ± SD",17.2 ± 1.8 h
same,MRT last,"[2]; 80 mg, mean ± SD",18.6 ± 1.9 h
same,MRT inf,"[2]; 80 mg, mean ± SD",22.7 ± 3.1 h
same,AUC(0-inf),"[2]; 140 mg, mean ± SD",15300 ng·h/mL
same,AUC(0-t),"[2]; 140 mg, mean ± SD",14200 ng·h/mL
same,Cmax,"[2]; 140 mg, mean ± SD",854 ± 289 ng/mL
same,Tmax,"[2]; 140 mg, mean ± SD",2 ± 1.7 h
same,Vd/F,"[2]; 140 mg, mean ± SD",236 ± 37.6 L
same,half-life,"[2]; 140 mg, mean ± SD",18 ± 3.6 h
same,MRT last,"[2]; 140 mg, mean ± SD",19.1 ± 3.6 h
same,MRT inf,"[2]; 140 mg, mean ± SD",24.8 ± 6.5 h
same,AUC(0-inf),"[2]; 200 mg, mean ± SD",15000 ng·h/mL
same,AUC(0-t),"[2]; 200 mg, mean ± SD",13100 ng·h/mL
same,Cmax,"[2]; 200 mg, mean ± SD",641 ± 378 ng/mL
same,Tmax,"[2]; 200 mg, mean ± SD",9.4 ± 10.1 h
same,Vd/F,"[2]; 200 mg, mean ± SD",318 ± 92.2 L
same,half-life,"[2]; 200 mg, mean ± SD",16 ± 1.9 h
same,MRT last,"[2]; 200 mg, mean ± SD",21.5 ± 6.4 h
same,MRT inf,"[2]; 200 mg, mean ± SD",21.8 ± 4 h
same,"in vivo exposure (Cmax, AUC0-t, AUC0-∞) versus dose","[2]; single administrations, 20 to 140 mg",increased proportionally in a dose-dependent manner
same,CL/F,"[2]; 20 mg, mean",14.4 L/h
same,CL/F,"[2]; 40 mg, mean ± SD",17.6 ± 4.8 L/h
same,CL/F,"[2]; 80 mg, mean ± SD",12.2 ± 2.6 L/h
same,CL/F,"[2]; 140 mg, mean ± SD",9.2 ± 0.5 L/h
same,CL/F,"[2]; 200 mg, mean ± SD",13.6 ± 2.4 L/h
